Measurements reported in article PMC6009956, “Design, synthesis and biological activity of N^4-phenylsubstituted-7H-pyrrolo[2,3-d]pyrimidin-4-amines as dual inhibitors of aurora kinase A and epidermal growth factor receptor kinase” (Journal of Enzyme Inhibition and Medicinal Chemistry, 2017).
Where two headings read alike, the source gives them in different places.

Tests used:
[1] = target: T1, aurora A kinase (AURKA) (Homo sapiens, UniProt O14965); assay: ADP-Glo kinase assay, Aurora A; format: biochemical
T1 construct: purchased BPS Bioscience (assay run externally by the vendor)
T1 sequence (O14965 1-403): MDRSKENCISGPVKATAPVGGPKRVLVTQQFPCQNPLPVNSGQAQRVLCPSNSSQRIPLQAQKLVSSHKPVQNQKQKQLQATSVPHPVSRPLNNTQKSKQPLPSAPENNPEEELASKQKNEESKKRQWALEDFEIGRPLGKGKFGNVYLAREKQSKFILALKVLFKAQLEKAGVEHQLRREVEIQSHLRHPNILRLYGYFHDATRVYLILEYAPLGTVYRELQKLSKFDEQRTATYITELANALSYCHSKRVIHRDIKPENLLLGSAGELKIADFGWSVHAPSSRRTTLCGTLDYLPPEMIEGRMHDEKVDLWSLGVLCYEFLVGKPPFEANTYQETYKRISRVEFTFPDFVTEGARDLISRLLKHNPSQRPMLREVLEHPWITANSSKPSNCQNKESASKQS

[2] = target: EGFR (Homo sapiens, UniProt P00533); assay: ADP-Glo kinase assay, EGFR; format: biochemical; set-up: purchased BPS Bioscience (assay run externally by the vendor)
Chain of EGFR (P00533 25-1210): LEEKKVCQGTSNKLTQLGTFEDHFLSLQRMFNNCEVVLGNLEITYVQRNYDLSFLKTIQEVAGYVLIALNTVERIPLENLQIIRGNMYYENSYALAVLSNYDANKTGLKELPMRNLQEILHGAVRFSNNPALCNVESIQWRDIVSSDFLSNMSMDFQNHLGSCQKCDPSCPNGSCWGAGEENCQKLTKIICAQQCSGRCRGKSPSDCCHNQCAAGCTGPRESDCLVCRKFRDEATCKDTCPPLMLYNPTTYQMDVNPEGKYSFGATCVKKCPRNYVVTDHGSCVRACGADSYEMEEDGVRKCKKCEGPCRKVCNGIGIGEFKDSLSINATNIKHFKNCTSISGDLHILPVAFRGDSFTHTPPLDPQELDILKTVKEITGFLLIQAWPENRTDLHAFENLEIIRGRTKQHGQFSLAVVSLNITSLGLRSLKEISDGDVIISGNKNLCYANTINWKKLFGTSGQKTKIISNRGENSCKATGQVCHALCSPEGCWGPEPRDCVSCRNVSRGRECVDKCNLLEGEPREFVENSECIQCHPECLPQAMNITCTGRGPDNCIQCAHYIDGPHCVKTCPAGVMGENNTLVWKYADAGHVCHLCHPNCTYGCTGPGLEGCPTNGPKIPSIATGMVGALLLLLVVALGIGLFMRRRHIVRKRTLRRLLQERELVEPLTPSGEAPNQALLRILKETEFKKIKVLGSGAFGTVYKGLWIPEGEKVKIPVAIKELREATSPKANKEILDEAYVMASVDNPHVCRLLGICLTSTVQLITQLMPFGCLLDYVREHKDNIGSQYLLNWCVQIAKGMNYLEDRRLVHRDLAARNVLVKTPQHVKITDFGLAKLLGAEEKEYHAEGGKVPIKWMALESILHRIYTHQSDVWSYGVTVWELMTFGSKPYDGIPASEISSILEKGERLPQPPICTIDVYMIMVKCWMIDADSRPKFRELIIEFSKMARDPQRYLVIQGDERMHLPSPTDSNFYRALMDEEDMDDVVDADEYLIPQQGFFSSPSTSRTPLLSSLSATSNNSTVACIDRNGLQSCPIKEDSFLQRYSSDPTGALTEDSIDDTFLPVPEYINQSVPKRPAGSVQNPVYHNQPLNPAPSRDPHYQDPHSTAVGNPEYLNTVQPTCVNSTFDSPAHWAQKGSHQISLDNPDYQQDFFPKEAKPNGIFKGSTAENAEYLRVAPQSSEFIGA

With Brc1ccc(Nc2ncnc3[nH]ccc23)cc1 [Compound 10, N^4-(4-bromophenyl)-7H-pyrrolo[2,3-d]pyrimidin-4-amine] the IC50 ([1]; 10 µM ATP, triplicate, read-out: AURKA IC50 ± SD) was 3730 ± 120 nM, the IC50 ([1]; 10 µM ATP/0.2 mg/ml Kemptide, read-out: Aurora A IC50 (dose-response curve, supplement)) was 3700 nM and the “Aurora A % Activity Set1” value ([1]; Log[nM] 0) was 98%. For the same compound, the “Aurora A % Activity Set2” value ([1]; Log[nM] 0) was 87%, the “Aurora A % Activity Set3” value ([1]; Log[nM] 0) was 96% and the “Aurora A % Activity Set1” value ([1]; Log[nM] 1.0) was 97%. For the same compound, the “Aurora A % Activity Set2” value ([1]; Log[nM] 1.0) was 94%, the “Aurora A % Activity Set3” value ([1]; Log[nM] 1.0) was 94% and the “Aurora A % Activity Set1” value ([1]; Log[nM] 1.5) was 100%. For the same compound, the “Aurora A % Activity Set2” value ([1]; Log[nM] 1.5) was 95%, the “Aurora A % Activity Set3” value ([1]; Log[nM] 1.5) was 95% and the “Aurora A % Activity Set1” value ([1]; Log[nM] 2.0) was 102%. For the same compound, the “Aurora A % Activity Set2” value ([1]; Log[nM] 2.0) was 97%, the “Aurora A % Activity Set3” value ([1]; Log[nM] 2.0) was 101% and the “Aurora A % Activity Set1” value ([1]; Log[nM] 2.5) was 100%. The “Aurora A % Activity Set2” value ([1]; Log[nM] 2.5) was 93%, the “Aurora A % Activity Set3” value ([1]; Log[nM] 2.5) was 98% and the “Aurora A % Activity Set1” value ([1]; Log[nM] 3.0) was 82%. The “Aurora A % Activity Set2” value ([1]; Log[nM] 3.0) was 83%, the “Aurora A % Activity Set3” value ([1]; Log[nM] 3.0) was 82% and the “Aurora A % Activity Set1” value ([1]; Log[nM] 3.5) was 60%. For the same compound, the “Aurora A % Activity Set2” value ([1]; Log[nM] 3.5) was 55%, the “Aurora A % Activity Set3” value ([1]; Log[nM] 3.5) was 53% and the “Aurora A % Activity Set1” value ([1]; Log[nM] 4.0) was 20%. The “Aurora A % Activity Set2” value ([1]; Log[nM] 4.0) was 19%, the “Aurora A % Activity Set3” value ([1]; Log[nM] 4.0) was 20% and the “Aurora A % Activity Set1” value ([1]; Log[nM] 4.5) was 9%. The “Aurora A % Activity Set2” value ([1]; Log[nM] 4.5) was 9%, the “Aurora A % Activity Set3” value ([1]; Log[nM] 4.5) was 9% and the “Aurora A % Activity Set1” value ([1]; Log[nM] 5.0) was 10%. The “Aurora A % Activity Set2” value ([1]; Log[nM] 5.0) was 10%, the “Aurora A % Activity Set3” value ([1]; Log[nM] 5.0) was 9% and the IC50 ([2]; 10 µM ATP, triplicate, read-out: EGFR IC50 ± SD) was 125 ± 16.4 nM. The IC50 ([2]; 10 µM ATP/0.2 mg/ml Poly-Glu-Tyr, read-out: EGFR IC50 (dose-response curve, supplement)) was 125 nM, the “EGFR % Activity Set1” value ([2]; Log[nM] 0) was 90% and the “EGFR % Activity Set2” value ([2]; Log[nM] 0) was 96%. For the same compound, the “EGFR % Activity Set3” value ([2]; Log[nM] 0) was 103%, the “EGFR % Activity Set1” value ([2]; Log[nM] 1.0) was 97% and the “EGFR % Activity Set2” value ([2]; Log[nM] 1.0) was 90%. For the same compound, the “EGFR % Activity Set3” value ([2]; Log[nM] 1.0) was 97%, the “EGFR % Activity Set1” value ([2]; Log[nM] 1.5) was 78% and the “EGFR % Activity Set2” value ([2]; Log[nM] 1.5) was 82%. For the same compound, the “EGFR % Activity Set3” value ([2]; Log[nM] 1.5) was 80%, the “EGFR % Activity Set1” value ([2]; Log[nM] 2.0) was 53% and the “EGFR % Activity Set2” value ([2]; Log[nM] 2.0) was 56%. The “EGFR % Activity Set3” value ([2]; Log[nM] 2.0) was 51%, the “EGFR % Activity Set1” value ([2]; Log[nM] 2.5) was 30% and the “EGFR % Activity Set2” value ([2]; Log[nM] 2.5) was 29%. The “EGFR % Activity Set3” value ([2]; Log[nM] 2.5) was 28%, the “EGFR % Activity Set1” value ([2]; Log[nM] 3.0) was 14% and the “EGFR % Activity Set2” value ([2]; Log[nM] 3.0) was 12%. For the same compound, the “EGFR % Activity Set3” value ([2]; Log[nM] 3.0) was 12%, the “EGFR % Activity Set1” value ([2]; Log[nM] 3.5) was 6% and the “EGFR % Activity Set2” value ([2]; Log[nM] 3.5) was 5%. The “EGFR % Activity Set3” value ([2]; Log[nM] 3.5) was 5%, the “EGFR % Activity Set1” value ([2]; Log[nM] 4.0) was 2% and the “EGFR % Activity Set2” value ([2]; Log[nM] 4.0) was 2%. The “EGFR % Activity Set3” value ([2]; Log[nM] 4.0) was 2%, the “EGFR % Activity Set1” value ([2]; Log[nM] 4.5) was 1% and the “EGFR % Activity Set2” value ([2]; Log[nM] 4.5) was 1%. The “EGFR % Activity Set3” value ([2]; Log[nM] 4.5) was 1%, the “EGFR % Activity Set1” value ([2]; Log[nM] 5.0) was 1% and the “EGFR % Activity Set2” value ([2]; Log[nM] 5.0) was 1%. The “EGFR % Activity Set3” value ([2]; Log[nM] 5.0) was 1%.
